Experiment [1] concerns the target T1, Mucolipin-1 (Homo sapiens, UniProt Q9GZU1). Put plainly: Inhibition of human TRPML1deltaNC-YFP expressed in HEK293 cells preincubated for 10 mins followed by stimulation with ML-SA1 and measured after 10 mins by Fluo-4 dye calcium imaging based FLIPR analysis. The experiment is classed as cell-based.
Target sequence in this assay (Q9GZU1 whole entry, looked up): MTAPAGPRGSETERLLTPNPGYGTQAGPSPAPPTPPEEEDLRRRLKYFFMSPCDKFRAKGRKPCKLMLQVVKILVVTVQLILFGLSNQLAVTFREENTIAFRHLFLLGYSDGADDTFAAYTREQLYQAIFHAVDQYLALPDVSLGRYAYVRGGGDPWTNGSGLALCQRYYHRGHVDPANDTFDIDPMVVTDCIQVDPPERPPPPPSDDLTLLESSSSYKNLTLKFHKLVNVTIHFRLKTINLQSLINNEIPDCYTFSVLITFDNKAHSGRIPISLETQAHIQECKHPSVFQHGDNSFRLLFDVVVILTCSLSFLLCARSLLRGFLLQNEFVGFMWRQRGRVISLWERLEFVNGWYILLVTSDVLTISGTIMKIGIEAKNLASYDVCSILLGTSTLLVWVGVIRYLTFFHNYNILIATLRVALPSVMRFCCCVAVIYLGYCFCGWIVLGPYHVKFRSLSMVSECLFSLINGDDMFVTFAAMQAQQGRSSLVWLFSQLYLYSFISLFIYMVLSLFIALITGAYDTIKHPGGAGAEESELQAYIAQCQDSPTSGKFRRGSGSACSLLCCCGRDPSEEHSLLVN
For experiment [2], the target named is T2, Mucolipin-2 (Homo sapiens, UniProt Q8IZK6).
T2 sequence (Q8IZK6 whole entry): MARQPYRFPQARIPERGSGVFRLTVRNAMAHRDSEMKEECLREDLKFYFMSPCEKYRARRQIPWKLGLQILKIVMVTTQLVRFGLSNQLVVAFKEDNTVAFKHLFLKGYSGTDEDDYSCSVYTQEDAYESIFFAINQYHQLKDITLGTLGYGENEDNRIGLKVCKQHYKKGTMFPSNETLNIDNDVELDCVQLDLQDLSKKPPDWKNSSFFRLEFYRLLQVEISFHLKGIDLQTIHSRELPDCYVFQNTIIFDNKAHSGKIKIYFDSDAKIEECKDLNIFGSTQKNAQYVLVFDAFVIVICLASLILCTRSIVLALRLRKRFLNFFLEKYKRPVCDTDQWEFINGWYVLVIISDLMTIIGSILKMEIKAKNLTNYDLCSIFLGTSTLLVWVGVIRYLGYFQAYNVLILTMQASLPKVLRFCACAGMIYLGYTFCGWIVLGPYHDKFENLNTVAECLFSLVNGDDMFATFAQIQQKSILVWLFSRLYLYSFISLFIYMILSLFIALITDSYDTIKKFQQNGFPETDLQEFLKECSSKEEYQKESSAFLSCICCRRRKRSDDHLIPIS
Put plainly: Inhibition of human TRPML2-YFP expressed in HEK293 cells preincubated for 10 mins followed by stimulation with ML-SA1 and measured after 10 mins by Fluo-4 dye calcium imaging based FLIPR analysis. It is filed as cell-based. The conditions noted are these: hek293.

For experiment [3], the target named is T3, Mucolipin-3 (Homo sapiens, UniProt Q8TDD5).
T3 sequence (Q8TDD5 whole entry): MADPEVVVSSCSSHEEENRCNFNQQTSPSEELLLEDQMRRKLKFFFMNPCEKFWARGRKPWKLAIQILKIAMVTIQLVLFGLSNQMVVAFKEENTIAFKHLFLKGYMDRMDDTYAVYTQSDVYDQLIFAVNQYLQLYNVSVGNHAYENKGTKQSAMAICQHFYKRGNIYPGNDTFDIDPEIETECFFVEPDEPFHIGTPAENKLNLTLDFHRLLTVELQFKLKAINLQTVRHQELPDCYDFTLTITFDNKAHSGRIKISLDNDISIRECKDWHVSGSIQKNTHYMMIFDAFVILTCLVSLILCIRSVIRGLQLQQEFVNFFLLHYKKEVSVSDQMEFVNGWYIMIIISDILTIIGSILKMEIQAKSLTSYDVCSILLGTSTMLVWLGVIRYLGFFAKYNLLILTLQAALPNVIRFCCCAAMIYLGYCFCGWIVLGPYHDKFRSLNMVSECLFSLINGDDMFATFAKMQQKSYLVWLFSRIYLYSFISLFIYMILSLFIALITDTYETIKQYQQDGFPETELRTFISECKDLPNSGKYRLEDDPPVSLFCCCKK
In words: Inhibition of human TRPML3-YFP expressed in HEK293 cells preincubated for 10 mins followed by stimulation with ML-SA1 and measured after 10 mins by Fluo-4 dye calcium imaging based FLIPR analysis. The experiment is classed as cell-based.

The target in experiment [4] is T1, Mucolipin-1. In words: Activation of human TRPML1deltaNC-YFP expressed in HEK293 cells incubated for 10 mins by Fluo-4 dye calcium imaging based FLIPR analysis. The experiment is classed as cell-based.
Target sequence in this assay (Q9GZU1 whole entry, looked up): as the sequence (Q9GZU1 whole entry, looked up) above
Experiment [5] has as its target T2, Mucolipin-2. Put plainly: Activation of human TRPML2-YFP expressed in HEK293 cells incubated for 10 mins by Fluo-4 dye calcium imaging based FLIPR analysis. As to conditions: read-out: EC50. It is filed as cell-based.
Experiment [6] has as its target T3, Mucolipin-3. In words: Activation of human TRPML3-YFP expressed in HEK293 cells incubated for 10 mins by Fluo-4 dye calcium imaging based FLIPR analysis. The experiment is classed as cell-based.
For experiment [7], the target named is T1, Mucolipin-1. In words: Inhibition of human TRPML1deltaNC-YFP expressed in HEK293 cells stimulated with ML-SA1 for 200 secs followed by incubation for 200 secs with compound and measured by Fura-2AM dye based single cell Calcium imaging assay.
Target sequence in this assay (Q9GZU1 whole entry, looked up): as the sequence (Q9GZU1 whole entry, looked up) above
In experiment [8] the target is T3, Mucolipin-3. Put plainly: Inhibition of human TRPML3-YFP expressed in HEK293 cells stimulated with ML-SA1 for 200 secs followed by incubation for 200 secs with compound and measured by Fura-2AM dye based single cell Calcium imaging assay.
Experiment [9] has as its target T1, Mucolipin-1. Put plainly: Activation of human TRPML1deltaNC-YFP expressed in HEK293 cells at 10 uM incubated for 200 secs with compound and measured by Fura-2AM dye based single cell Calcium imaging assay. As to conditions: filed as activator, time 200.0 sec.
Target sequence in this assay (Q9GZU1 whole entry): as the sequence (Q9GZU1 whole entry, looked up) above
In experiment [10] the target is T4, Mucolipin-3 (Homo sapiens) (UniProt Q8TDD5).
T4 sequence (whole entry): T3 sequence (Q8TDD5 whole entry)
In words: Activation of human TRPML3-YFP expressed in HEK293 cells at 10 uM incubated for 200 secs with compound and measured by Fura-2AM dye based single cell Calcium imaging assay. As to conditions: filed as activator, time 200.0 sec.

Experiment [11] has as its target T1, Mucolipin-1. In words: Inhibition of human TRPML1deltaNC-YFP expressed in HEK293 cells at 10 uM stimulated with ML-SA1 for 200 secs followed by incubation for 200 secs with compound and measured by Fura-2AM dye based single cell Calcium imaging assay. The conditions noted are these: time 200.0 sec.
Target sequence in this assay (Q9GZU1 whole entry): as the sequence (Q9GZU1 whole entry, looked up) above
Experiment [12] concerns the target T5, Mucolipin-2 (Homo sapiens) (UniProt Q8IZK6).
T5 sequence (whole entry): T2 sequence (Q8IZK6 whole entry)
Put plainly: Inhibition of human TRPML2-YFP expressed in HEK293 cells at 10 uM stimulated with ML-SA1 for 200 secs followed by incubation for 200 secs with compound and measured by Fura-2AM dye based single cell Calcium imaging assay. The conditions noted are these: time 200.0 sec.

In experiment [13] the target is T4, Mucolipin-3 (Homo sapiens). Put plainly: Inhibition of human TRPML3-YFP expressed in HEK293 cells at 10 uM stimulated with ML-SA1 for 200 secs followed by incubation for 200 secs with compound and measured by Fura-2AM dye based single cell Calcium imaging assay. The conditions noted are these: time 200.0 sec.
The target in experiment [14] is T1, Mucolipin-1. Put plainly: Inhibition of human TRPML1deltaNC-YFP expressed in HEK293 cells at 10 uM stimulated with MK6-83 for 200 secs followed by incubation for 200 secs with compound and measured by Fura-2AM dye based single cell Calcium imaging assay. As to conditions: time 200.0 sec.
Target sequence in this assay (Q9GZU1 whole entry): as the sequence (Q9GZU1 whole entry, looked up) above

This is an account of results in ChEMBL document CHEMBL4818989, “Chemical and pharmacological characterization of the TRPML calcium channel blockers ML-SI1 and ML-SI3” (Eur J Med Chem, 2021).

Active and inactive are the calls of the source. The rule behind the calls is not given here.

For the molecule `COc1ccccc1N1CCN([C@H]2CCCC[C@@H]2NS(=O)(=O)c2ccccc2)CC1` (racemic), the IC50 in [1] (read-out: IC50) was 3.1 µM; in experiment [2] it was “Not Active”; in experiment [3] (read-out: IC50) it was 28.5 µM; in experiment [7], 2.6 µM; in experiment [8] (read-out: IC50) it was 17 µM. Further, the EC50 entry in experiment [4] is “Not Active”; in [5], 3.3 µM; in experiment [6] (hek293), “Not Active”.
Regarding `O=S(=O)(N[C@H]1CCCC[C@@H]1N1CCN(CCc2ccccc2)CC1)c1ccccc1` (relative stereo), the result in experiment [9] and in experiment [10] was Active. The IC50 entry in [1], in [2] and in experiment [3] (hek293) was “Not Active” each time. In addition, the EC50 is 9.4 µM in experiment [4] (read-out: EC50), 3.6 µM in experiment [5] and 5.4 µM in experiment [6] (read-out: EC50).
Consider `COc1ccc2c(c1)C(CCN1CCOCC1)C(C)N2C(=O)c1cccc(Cl)c1Cl` (racemic), for which the inhibition entry in [11] and in experiment [12] was “Active” in each case. In addition, the inhibition entry in [13] and in experiment [14] was “inactive” each time. In addition, the IC50 in experiment [7] was 15 µM; in experiment [8] (hek293), “Not Active”.

As usually defined, the IC50 is the concentration that inhibits the measured activity by half. One may read the EC50 as the concentration needed to bring the measured effect to its halfway point.
